Data from patent US20250269072A1, “PROCESSES FOR PREPARING RADIOLABELLED CONJUGATES” (CENTENARY INSTITUTE OF CANCER MEDICINE AND CELL BIOLOGY, priority 2021, published 2025).
“And” between values parts separate entries of the source, which are not always exact repeats. Equal entries are not always repeated.

Experiment: Human studies: radiation dosimetry of subjects 1-4 (Olinda/EXM)
Assay type: in vivo
Procedure: For subjects 1-4, radiation dosimetry was calculated using Olinda/EXM based on the organ biodistribution discussed above.
Tables 7-10 show the estimate for radiation dosimetry for subjects 1˜4 of 200 MBq of ^68Ga NODAGA GSAO for individual organs and for the whole body in mSv/MBq (EDE cont.=effective dose equivalent contribution, ED Cont.=effective dose contribution). The estimated whole-body dose from the one (1) low dose CT and two (2) ultra-low dose CTs was 9.2 mSv.

[1] = Red Marrow, subjects 1-4 = the 7th table-the 10th table
[2] = Skin, subjects 1-4 = the 7th table-the 10th table
[3] = Small Intestine, subjects 1-4 = the 7th table-the 10th table
[4] = Spleen, subjects 1-4 = the 7th table-the 10th table
[5] = Stomach Wall, subjects 1-4 = the 7th table-the 10th table
[6] = Testes, subject 1 = the 7th table, subject 3 = the 9th table
[7] = Thymus, subjects 1-4 = the 7th table-the 10th table
[8] = Thyroid, subjects 1-4 = the 7th table-the 10th table
[9] = Total Body, subjects 1-4 = the 7th table-the 10th table
[10] = ULI Wall, subjects 1-4 = the 7th table-the 10th table
[11] = Uterus, subjects 1-4 = the 7th table-the 10th table

O=C(O)CNC(=O)[C@H](CSCC(=O)Nc1ccc([As](O)O)cc1)NC(=O)CC[C@H](NC(=O)CCC1C(=O)[O][68Ga]2[O]C(=O)CN3CCN(CCN1CC3)CC(=O)[O]2)C(=O)O (some centres unmarked) [^68Ga-NODAGA-GSAO]
Total dose (Pancreas, subjects 1-4 = the 7th table-the 10th table): 1.69E−02 mSv/MBq and 2.21E−02 mSv/MBq and 1.54E−02 mSv/MBq
Alpha dose [1]: 0.00E+00 mSv/MBq
Beta dose [1]: 5.39E−03 mSv/MBq and 6.61E−03 mSv/MBq and 4.29E−03 mSv/MBq and 5.25E−03 mSv/MBq
ED Cont. [1]: 1.09E−03 mSv/MBq and 1.30E−03 mSv/MBq and 8.70E−04 mSv/MBq and 1.13E−03 mSv/MBq
EDE Cont. [1]: 1.09E−03 mSv/MBq and 1.30E−03 mSv/MBq and 8.70E−04 mSv/MBq and 1.13E−03 mSv/MBq
Photon dose [1]: 3.70E−03 mSv/MBq and 4.24E−03 mSv/MBq and 2.96E−03 mSv/MBq and 4.13E−03 mSv/MBq
Total dose [1]: 9.08E−03 mSv/MBq and 1.08E−02 mSv/MBq and 7.25E−03 mSv/MBq and 9.38E−03 mSv/MBq
Alpha dose [2]: 0.00E+00 mSv/MBq
ED Cont. [2]: 5.17E−05 mSv/MBq and 7.01E−05 mSv/MBq and 3.66E−05 mSv/MBq and 5.79E−05 mSv/MBq
EDE Cont. [2]: 0.00E+00 mSv/MBq
Photon dose [2]: 2.03E−03 mSv/MBq and 2.32E−03 mSv/MBq and 1.63E−03 mSv/MBq and 2.26E−03 mSv/MBq
Total dose [2]: 5.17E−03 mSv/MBq and 7.01E−03 mSv/MBq and 3.66E−03 mSv/MBq and 5.79E−03 mSv/MBq
Alpha dose [3]: 0.00E+00 mSv/MBq
ED Cont. [3]: 7.19E−05 mSv/MBq and 9.14E−05 mSv/MBq and 6.51E−05 mSv/MBq and 4.60E−05 mSv/MBq
EDE Cont. [3]: 0.00E+00 mSv/MBq
Photon dose [3]: 5.21E−03 mSv/MBq and 5.57E−03 mSv/MBq and 4.29E−03 mSv/MBq and 5.67E−03 mSv/MBq
Total dose [3]: 1.44E−02 mSv/MBq and 1.83E−02 mSv/MBq and 1.30E−02 mSv/MBq and 9.20E−03 mSv/MBq
Alpha dose [4]: 0.00E+00 mSv/MBq
Beta dose [4]: 1.27E−02 mSv/MBq and 1.48E−02 mSv/MBq and 1.09E−02 mSv/MBq and 1.18E−02 mSv/MBq
ED Cont. [4]: 8.65E−05 mSv/MBq and 1.01E−04 mSv/MBq and 7.35E−05 mSv/MBq and 8.27E−05 mSv/MBq
Photon dose [4]: 4.57E−03 mSv/MBq and 5.34E−03 mSv/MBq and 3.83E−03 mSv/MBq and 4.70E−03 mSv/MBq
Total dose [4]: 1.73E−02 mSv/MBq and 2.02E−02 mSv/MBq and 1.47E−02 mSv/MBq and 1.65E−02 mSv/MBq
Alpha dose [5]: 0.00E+00 mSv/MBq
EDE Cont. [5]: 0.00E+00 mSv/MBq
Photon dose [5]: 3.93E−03 mSv/MBq and 4.97E−03 mSv/MBq and 3.12E−03 mSv/MBq and 4.01E−03 mSv/MBq
Alpha dose [6]: 0.00E+00 mSv/MBq
Beta dose [6]: 1.37E−02 mSv/MBq and 1.22E−02 mSv/MBq
ED Cont. [6]: 3.65E−03 mSv/MBq and 3.27E−03 mSv/MBq
EDE Cont. [6]: 4.56E−03 mSv/MBq and 4.09E−03 mSv/MBq
Photon dose [6]: 4.58E−03 mSv/MBq and 4.18E−03 mSv/MBq
Total dose [6]: 1.83E−02 mSv/MBq and 1.64E−02 mSv/MBq
Alpha dose [7]: 0.00E+00 mSv/MBq
ED Cont. [7]: 3.06E−05 mSv/MBq and 4.18E−05 mSv/MBq and 2.16E−05 mSv/MBq and 3.38E−05 mSv/MBq
EDE Cont. [7]: 0.00E+00 mSv/MBq
Photon dose [7]: 2.96E−03 mSv/MBq and 3.66E−03 mSv/MBq and 2.30E−03 mSv/MBq and 3.23E−03 mSv/MBq
Total dose [7]: 6.11E−03 mSv/MBq and 8.36E−03 mSv/MBq and 4.32E−03 mSv/MBq and 6.76E−03 mSv/MBq
Alpha dose [8]: 0.00E+00 mSv/MBq
Beta dose [8]: 1.12E−02 mSv/MBq and 1.19E−02 mSv/MBq and 8.46E−03 mSv/MBq and 1.34E−02 mSv/MBq
ED Cont. [8]: 7.05E−04 mSv/MBq and 7.59E−04 mSv/MBq and 5.42E−04 mSv/MBq and 8.18E−04 mSv/MBq
EDE Cont. [8]: 4.23E−04 mSv/MBq and 4.55E−04 mSv/MBq and 3.25E−04 mSv/MBq and 4.91E−04 mSv/MBq
Photon dose [8]: 2.86E−03 mSv/MBq and 3.24E−03 mSv/MBq and 2.38E−03 mSv/MBq and 3.00E−03 mSv/MBq
Total dose [8]: 1.41E−02 mSv/MBq and 1.52E−02 mSv/MBq and 1.08E−02 mSv/MBq and 1.64E−02 mSv/MBq
Alpha dose [9]: 0.00E+00 mSv/MBq
Beta dose [9]: 6.33E−03 mSv/MBq and 7.76E−03 mSv/MBq and 4.94E−03 mSv/MBq and 6.96E−03 mSv/MBq
ED Cont. [9]: 0.00E+00 mSv/MBq
EDE Cont. [9]: 0.00E+00 mSv/MBq
Photon dose [9]: 3.44E−03 mSv/MBq and 3.84E−03 mSv/MBq and 2.77E−03 mSv/MBq and 3.92E−03 mSv/MBq
Total dose [9]: 9.78E−03 mSv/MBq and 1.16E−02 mSv/MBq and 7.71E−03 mSv/MBq and 1.09E−02 mSv/MBq
Alpha dose [10]: 0.00E+00 mSv/MBq
EDE Cont. [10]: 0.00E+00 mSv/MBq
Photon dose [10]: 5.20E−03 mSv/MBq and 6.02E−03 mSv/MBq and 4.00E−03 mSv/MBq and 5.50E−03 mSv/MBq
Alpha dose (Urinary Bladder Wall, subjects 1-4 = the 7th table-the 10th table): 0.00E+00 mSv/MBq
Alpha dose [11]: 0.00E+00 mSv/MBq
Photon dose [11]: 1.06E−02 mSv/MBq and 8.98E−03 mSv/MBq and 8.36E−03 mSv/MBq and 1.51E−02 mSv/MBq
estimated effective whole-body dose (administered activity of 200 MBq): 4.3-6.8 mSv
estimated effective whole-body dose for the protocol (first in human protocol incl. CTs, subjects 1-4): 13.5-15.9 mSv
effective whole-body dose (range over subjects 1-4): 2.16×10^−2 to 3.38×10^−2 mSv/MBq
overall estimated radiation dose (subject 1): 14.5 mSv
overall estimated radiation dose (subject 2): 13.9 mSv
overall estimated radiation dose (subject 3): 13.5 mSv
overall estimated radiation dose (subject 4): 15.9 mSv
Effective Dose (whole body, subjects 1-4 = the 7th table-the 10th table): 2.63E−02 mSv/MBq and 2.35E−02 mSv/MBq and 2.16E−02 mSv/MBq and 3.38E−02 mSv/MBq
